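Briefly, cells in 96-well plates were exposed to five compound concentrations for 48 h, and endpoints were estimated by linear interpolation. GI50: concentration for 50% inhibition of growth. TGI: total growth inhibition.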
Key:
Test in all cases: growth of human tumour cells (NCI), 48 h
OVCAR-8 ovarian = system: OVCAR-8 ovarian
MALME-3M melanoma = system: MALME-3M melanoma
SNB-19 CNS = system: SNB-19 CNS
MDA-MB-435 = system: MDA-MB-435
A498 renal = system: A498 renal
LOX IMVI melanoma = system: LOX IMVI melanoma
UACC-62 melanoma = system: UACC-62 melanoma
NCI-H460 lung = system: NCI-H460 lung
KM12 colon = system: KM12 colon
NCI-H23 lung = system: NCI-H23 lung
SN12C renal = system: SN12C renal
HOP-92 NSCLC = system: HOP-92 NSCLC
K-562 leukemia = system: K-562 leukemia
SF-268 CNS = system: SF-268 CNS
U251 CNS = system: U251 CNS
EKVX NSCLC = system: EKVX NSCLC
A549 NSCLC = system: A549 NSCLC
SNB-75 CNS = system: SNB-75 CNS
786-0 renal = system: 786-0 renal
SK-OV-3 ovarian = system: SK-OV-3 ovarian
TK-10 renal = system: TK-10 renal
PC-3 prostate = system: PC-3 prostate
MDA-MB-231 breast = system: MDA-MB-231 breast
OVCAR-5 ovarian = system: OVCAR-5 ovarian
DU-145 prostate = system: DU-145 prostate
ACHN renal = system: ACHN renal
SK-MEL-5 melanoma = system: SK-MEL-5 melanoma
UACC-257 melanoma = system: UACC-257 melanoma
HL-60(TB) leukemia = system: HL-60(TB) leukemia
OVCAR-4 ovarian = system: OVCAR-4 ovarian
HOP-62 NSCLC = system: HOP-62 NSCLC
COLO 205 colon = system: COLO 205 colon
SK-MEL-28 melanoma = system: SK-MEL-28 melanoma
HCT-15 colon = system: HCT-15 colon
CCRF-CEM leukemia = system: CCRF-CEM leukemia
CAKI-1 renal = system: CAKI-1 renal
OVCAR-3 ovarian = system: OVCAR-3 ovarian
NCI-H522 lung = system: NCI-H522 lung
SW-620 colon = system: SW-620 colon
SF-539 CNS = system: SF-539 CNS
SK-MEL-2 melanoma = system: SK-MEL-2 melanoma
HCC-2998 colon = system: HCC-2998 colon
RPMI-8226 leukemia = system: RPMI-8226 leukemia
SR leukemia = system: SR leukemia
MCF7 breast = system: MCF7 breast
UO-31 renal = system: UO-31 renal
HS 578T breast = system: HS 578T breast
BT-549 breast = system: BT-549 breast
NCI-H226 lung = system: NCI-H226 lung
M14 melanoma = system: M14 melanoma
T-47D breast = system: T-47D breast
MDA-MB-468 breast = system: MDA-MB-468 breast
HT29 colon = system: HT29 colon
IGROV1 ovarian = system: IGROV1 ovarian
RXF 393 renal = system: RXF 393 renal
HCT-116 colon = system: HCT-116 colon
MOLT-4 leukemia = system: MOLT-4 leukemia
SF-295 CNS = system: SF-295 CNS

For `C=CC[Se]C(=O)c1cncc(C(=O)[Se]CC=C)c1`, the GI50 (OVCAR-8 ovarian) was 1.51 µM, the TGI (OVCAR-8 ovarian) was 2.94 µM and the GI50 (MALME-3M melanoma) was 1.92 µM. For the same molecule, the TGI (MALME-3M melanoma) was 4.86 µM, the GI50 (SNB-19 CNS) was 0.386 µM and the TGI (SNB-19 CNS) was 1.5 µM. It also gave a GI50 (MDA-MB-435) of 1.88 µM, a TGI (MDA-MB-435) of 3.79 µM and a GI50 (A498 renal) of 3.57 µM. For the same molecule, the TGI (A498 renal) was 47.8 µM, the GI50 (LOX IMVI melanoma) was 1.74 µM and the TGI (LOX IMVI melanoma) was 3.35 µM. The GI50 (UACC-62 melanoma) was 1.68 µM, the TGI (UACC-62 melanoma) was 3.72 µM and the GI50 (NCI-H460 lung) was 0.382 µM. For the same molecule, the TGI (NCI-H460 lung) was 3.07 µM, the GI50 (KM12 colon) was 1.34 µM and the TGI (KM12 colon) was 2.76 µM. The GI50 (NCI-H23 lung) was 1.39 µM, the TGI (NCI-H23 lung) was 2.96 µM and the GI50 (SN12C renal) was 0.628 µM. It also gave a TGI (SN12C renal) of 1.92 µM, a GI50 (HOP-92 NSCLC) of 3.3 µM and a TGI (HOP-92 NSCLC) of 8.93 µM. It also gave a GI50 (K-562 leukemia) of 3.15 µM, a TGI (K-562 leukemia) of 10.7 µM and a GI50 (SF-268 CNS) of 2.23 µM. The TGI (SF-268 CNS) was 6.82 µM, the GI50 (U251 CNS) was 0.782 µM and the TGI (U251 CNS) was 2.22 µM. The GI50 (EKVX NSCLC) was 1.46 µM, the TGI (EKVX NSCLC) was 3.08 µM and the GI50 (A549 NSCLC) was 0.434 µM. For the same molecule, the TGI (A549 NSCLC) was greater than 100 µM, the GI50 (SNB-75 CNS) was 1.03 µM and the TGI (SNB-75 CNS) was 2.44 µM. It also gave a GI50 (786-0 renal) of 1.85 µM, a TGI (786-0 renal) of 3.27 µM and a GI50 (SK-OV-3 ovarian) of 1.43 µM. For the same molecule, the TGI (SK-OV-3 ovarian) was 3.03 µM, the GI50 (TK-10 renal) was 1.71 µM and the TGI (TK-10 renal) was 3.14 µM. The GI50 (PC-3 prostate) was 0.431 µM, the TGI (PC-3 prostate) was 1.53 µM and the GI50 (MDA-MB-231 breast) was 1.8 µM. It also gave a TGI (MDA-MB-231 breast) of 4 µM, a GI50 (OVCAR-5 ovarian) of 1.55 µM and a TGI (OVCAR-5 ovarian) of 3.16 µM. For the same molecule, the GI50 (DU-145 prostate) was 2.22 µM, the TGI (DU-145 prostate) was 4.73 µM and the GI50 (ACHN renal) was 3.28 µM. It also gave a TGI (ACHN renal) of 10.3 µM, a GI50 (SK-MEL-5 melanoma) of 1.71 µM and a TGI (SK-MEL-5 melanoma) of 3.69 µM. It also gave a GI50 (UACC-257 melanoma) of 1.79 µM, a TGI (UACC-257 melanoma) of 3.35 µM and a GI50 (HL-60(TB) leukemia) of 2.64 µM. It also gave a TGI (HL-60(TB) leukemia) of 7.67 µM, a GI50 (OVCAR-4 ovarian) of 1.99 µM and a TGI (OVCAR-4 ovarian) of 3.85 µM. The GI50 (HOP-62 NSCLC) was 0.525 µM, the TGI (HOP-62 NSCLC) was 2.23 µM and the GI50 (COLO 205 colon) was 3.65 µM. For the same molecule, the TGI (COLO 205 colon) was 10.6 µM, the GI50 (SK-MEL-28 melanoma) was 1.71 µM and the TGI (SK-MEL-28 melanoma) was 3.24 µM. The GI50 (HCT-15 colon) was 1.95 µM, the TGI (HCT-15 colon) was 3.81 µM and the GI50 (CCRF-CEM leukemia) was 2.42 µM. For the same molecule, the TGI (CCRF-CEM leukemia) was 7.28 µM, the GI50 (CAKI-1 renal) was 1.8 µM and the TGI (CAKI-1 renal) was 3.46 µM. It also gave a GI50 (OVCAR-3 ovarian) of 1.89 µM, a TGI (OVCAR-3 ovarian) of 3.4 µM and a GI50 (NCI-H522 lung) of 1.68 µM. For the same molecule, the TGI (NCI-H522 lung) was 3.1 µM, the GI50 (SW-620 colon) was 1.94 µM and the TGI (SW-620 colon) was 3.68 µM. For the same molecule, the GI50 (SF-539 CNS) was 1.36 µM, the TGI (SF-539 CNS) was 2.65 µM and the GI50 (SK-MEL-2 melanoma) was 1.92 µM. The TGI (SK-MEL-2 melanoma) was 3.79 µM, the GI50 (HCC-2998 colon) was 1.06 µM and the TGI (HCC-2998 colon) was 2.26 µM. For the same molecule, the GI50 (RPMI-8226 leukemia) was 2.45 µM, the TGI (RPMI-8226 leukemia) was 6.38 µM and the GI50 (SR leukemia) was 3.02 µM. It also gave a TGI (SR leukemia) of 27.1 µM, a GI50 (MCF7 breast) of 2.21 µM and a TGI (MCF7 breast) of 5.55 µM. It also gave a GI50 (UO-31 renal) of 1.65 µM, a TGI (UO-31 renal) of 3.03 µM and a GI50 (HS 578T breast) of 1.94 µM. The TGI (HS 578T breast) was 6.82 µM, the GI50 (BT-549 breast) was 1.74 µM and the TGI (BT-549 breast) was 3.21 µM. The GI50 (NCI-H226 lung) was 2.88 µM, the TGI (NCI-H226 lung) was 10.5 µM and the GI50 (M14 melanoma) was 1.81 µM. For the same molecule, the TGI (M14 melanoma) was 3.31 µM, the GI50 (T-47D breast) was 2.14 µM and the TGI (T-47D breast) was 5.14 µM. The GI50 (MDA-MB-468 breast) was 1.8 µM, the TGI (MDA-MB-468 breast) was 3.54 µM and the GI50 (HT29 colon) was 3.03 µM. The TGI (HT29 colon) was 10.9 µM, the GI50 (IGROV1 ovarian) was 0.544 µM and the TGI (IGROV1 ovarian) was 1.8 µM. It also gave a GI50 (RXF 393 renal) of 2.17 µM, a TGI (RXF 393 renal) of 5.18 µM and a GI50 (HCT-116 colon) of 1.31 µM. It also gave a TGI (HCT-116 colon) of 2.82 µM, a GI50 (MOLT-4 leukemia) of 2.73 µM and a TGI (MOLT-4 leukemia) of 7.74 µM. It also gave a GI50 (SF-295 CNS) of 0.261 µM and a TGI (SF-295 CNS) of 0.756 µM.

— PubChem BioAssay (NCI)
